Results: patent US20070032443A1, “Therapy for Alzheimer's disease” (priority 2005, published 2007)

System: HEK293 cells
Experiment: Viability of HEK293 cells in culture with test compound
Assay type: cell-based, human
Parameters: key: ns: results are not shown due to poor viability of HEK293 cells in culture at the indicated compound concentration
Details: 10^−3 dilution of working concentration of Table 4 (D 0.1 millimolar); 6 days of culture

SMILES: O=P(O)(O)C(O)(Cn1ccnc1)P(=O)(O)O [Compound D, zolendronic acid]
- Viability of HEK293 cells in culture: ns^2
